According to the NIST ThermoML archive (doi:10.1016/j.jct.2017.10.012):
± gives the expanded uncertainty stated by the source.

Settings: Liquid, Vibrating tube method

CCCC[N+](C)(C)C.O=S(=O)([N-]S(=O)(=O)C(F)(F)F)C(F)(F)F [butyltrimethylammonium bis(trifluoromethylsulfonyl)imide]
Settings | mass density [kg/m3]
278.15 K, 100 kPa | 1411.9 ± 0.8
278.15 K, 101.33 kPa | 1411.6 ± 0.6
278.15 K, 1000 kPa | 1412.6 ± 0.8
278.15 K, 10000 kPa | 1419 ± 0.9
278.15 K, 20000 kPa | 1425.6 ± 1
278.15 K, 40000 kPa | 1438.3 ± 1.3
278.15 K, 60000 kPa | 1450 ± 1.6
278.15 K, 80000 kPa | 1460.7 ± 1.9
278.15 K, 100000 kPa | 1470.6 ± 2.3
278.15 K, 120000 kPa | 1480.6 ± 2.7
279.15 K, 101.33 kPa | 1410.6 ± 0.6
280.15 K, 101.33 kPa | 1409.6 ± 0.6
281.15 K, 101.33 kPa | 1408.6 ± 0.6
282.15 K, 101.33 kPa | 1407.7 ± 0.6
283.15 K, 101.33 kPa | 1406.7 ± 0.6
284.15 K, 101.33 kPa | 1405.7 ± 0.6
285.15 K, 101.33 kPa | 1404.8 ± 0.6
286.15 K, 101.33 kPa | 1403.8 ± 0.6
287.15 K, 101.33 kPa | 1402.9 ± 0.6
288.15 K, 101.33 kPa | 1402 ± 0.6
289.15 K, 101.33 kPa | 1401 ± 0.6
290.15 K, 101.33 kPa | 1400.1 ± 0.6
291.15 K, 101.33 kPa | 1399.2 ± 0.6
292.15 K, 101.33 kPa | 1398.3 ± 0.6
293.15 K, 101.33 kPa | 1397.4 ± 0.6
294.15 K, 101.33 kPa | 1396.5 ± 0.6
295.15 K, 101.33 kPa | 1395.6 ± 0.6
296.15 K, 101.33 kPa | 1394.7 ± 0.6
297.15 K, 101.33 kPa | 1393.8 ± 0.6
298.15 K, 100 kPa | 1394 ± 0.8
298.15 K, 101.33 kPa | 1392.9 ± 0.6
298.15 K, 1000 kPa | 1394.7 ± 0.8
298.15 K, 10000 kPa | 1401.2 ± 0.9
298.15 K, 20000 kPa | 1408.2 ± 1
298.15 K, 40000 kPa | 1421.2 ± 1.2
298.15 K, 60000 kPa | 1433.1 ± 1.5
298.15 K, 80000 kPa | 1444.1 ± 1.8
298.15 K, 100000 kPa | 1454.5 ± 2.2
298.15 K, 120000 kPa | 1464.3 ± 2.6
299.15 K, 101.33 kPa | 1392 ± 0.6
300.15 K, 101.33 kPa | 1391.1 ± 0.6
301.15 K, 101.33 kPa | 1390.2 ± 0.6
302.15 K, 101.33 kPa | 1389.4 ± 0.6
303.15 K, 101.33 kPa | 1388.5 ± 0.6
304.15 K, 101.33 kPa | 1387.6 ± 0.6
305.15 K, 101.33 kPa | 1386.7 ± 0.6
306.15 K, 101.33 kPa | 1385.8 ± 0.6
307.15 K, 101.33 kPa | 1385 ± 0.6
308.15 K, 101.33 kPa | 1384.1 ± 0.6
309.15 K, 101.33 kPa | 1383.2 ± 0.6
310.15 K, 101.33 kPa | 1382.4 ± 0.6
311.15 K, 101.33 kPa | 1381.5 ± 0.6
312.15 K, 101.33 kPa | 1380.6 ± 0.6
313.15 K, 100 kPa | 1380.9 ± 0.8
313.15 K, 101.33 kPa | 1379.7 ± 0.6
313.15 K, 1000 kPa | 1381.6 ± 0.8
313.15 K, 10000 kPa | 1388.4 ± 0.9
313.15 K, 20000 kPa | 1395.7 ± 1
313.15 K, 40000 kPa | 1409.2 ± 1.2
313.15 K, 60000 kPa | 1421.7 ± 1.5
313.15 K, 80000 kPa | 1433 ± 1.8
313.15 K, 100000 kPa | 1443.7 ± 2.2
313.15 K, 120000 kPa | 1453.7 ± 2.6
314.15 K, 101.33 kPa | 1378.9 ± 0.6
315.15 K, 101.33 kPa | 1378 ± 0.6
316.15 K, 101.33 kPa | 1377.1 ± 0.6
317.15 K, 101.33 kPa | 1376.3 ± 0.6
318.15 K, 101.33 kPa | 1375.4 ± 0.6
319.15 K, 101.33 kPa | 1374.5 ± 0.6
320.15 K, 101.33 kPa | 1373.7 ± 0.6
321.15 K, 101.33 kPa | 1372.8 ± 0.6
322.15 K, 101.33 kPa | 1372 ± 0.6
323.15 K, 101.33 kPa | 1371.1 ± 0.6
324.15 K, 101.33 kPa | 1370.3 ± 0.6
325.15 K, 101.33 kPa | 1369.4 ± 0.6
326.15 K, 101.33 kPa | 1368.6 ± 0.6
327.15 K, 101.33 kPa | 1367.7 ± 0.6
328.15 K, 101.33 kPa | 1366.8 ± 0.6
329.15 K, 101.33 kPa | 1366 ± 0.6
